Test [1] has as its system MIAC51 (chloroleukemia cells). Put plainly: Chloroleukemia (MIAC51) in rats: cure / survival under chemotherapy with topical calcitriol. It counts as in vivo, rat. The following applies: CTX, after Two Rounds of Chemotherapy. As for the experimental part:
For experiments in which rats were transplanted with chloroleukemia, on Day 5 after birth, rats were randomly divided into three groups of 45 each. All rats received 1×10^5 chloroleukemic cell line MIAC51 (i.p.) in 0.1 mL of serum free (SF) RPMI. MIAC51 were cultured in RPMI 1640 supplemented with L-glutamine and 10% fetal bovine serum at 37° C. in a 5% CO2, 100% humidity incubator. Cells were grown to 50% confluency (1.5×106 mL) collected in 50 mL conical tubes, centrifuged at 600 g×10 min. at room temperature and resuspended in SF-RPMI at a concentration of 1×10^6/mL. Group 1 rats received no further treatment. Group 2 rats received topical vehicle and CTX on day 13. […] Topical applications were performed as described above.
On day 23 after birth, a sample of blood was taken from all rats and differentials performed. Rats with leukemia were sacrificed, rats without leukemia were kept and a second differential performed on day 31, at any point if leukemia was detected, animals were sacrificed by CO2 asphyxiation.
On day 5 after birth all rats received 1×105 MIAC51 intraperitoneally in 0.1 mL of serum free (SF) RPMI. MIAC51 were cultured in RPMI 1640 supplemented with L-glutamine and 10% fetal bovine serum at […] in a 5% CO2, 100% humidity incubator. Cells were grown to 50% confluency (1.5×106 mL) collected in 50 mL conical tubes, centrifuged at 600 g for 10 minutes at room temperature and resuspended in SF-RPMI at a concentration of 1×10^6/mL prior to injection.
[…]

For test [2], the system named is Long Evans rats. The test is described as follows: CIA in chloroleukemic Long Evans rats receiving multi-course chemotherapy. It counts as in vivo, rat. The following applies: for ALOPECIA 4+ (number of rats): Cyclophosphamide (CTX).

SMILES strings stand for the structures.

Turning to `O=P1(N(CCCl)CCCl)NCCCO1` (centres unmarked) [CTX, Cyclophosphamide], the “Survival Rate, %” value in test [1] is recorded as 20%. Further, in test [1] (of 40), the “Cured (number of rats)” value is given as 8. Also, the “ALOPECIA 4+ (number of rats)” value in test [2] (after First Round of Chemotherapy) came to 40; in test [2] (after Second Round of Chemotherapy), 8. The “extent of alopecia (grade), all rats” value in test [2] (cyclophosphamide regimen, after the first round of chemotherapy) was “+4”.

For the origin of these results see patent US20230302022A1, “PREVENTING OR MITIGATING CHEMOTHERAPY INDUCED ALOPECIA USING VITAMIN D” (priority 2016, published 2023).
